Experimental data published in patent US3978225A, “Heterocyclic homoprostanoidal derivatives” (SmithKline Corporation, priority 1975, dated 1976).

Tests used:
[1] = test system: diarrhea induced by prostaglandin E2 (PGE2); experiment: Inhibition of PGE2 diarrhea in mice; assay type: in vivo; details: 15 minutes prior to i.p. PGE2
Protocol: The antagonism of diarrhea induced by prostaglandin E2 (PGE2) was determined by employing the modified standard animal pharmacological test procedure as reported in Intra Science Chem. Rept 6:1-9, 1972 and Annals of the New York Academy of Sciences 180:386-95, 1971. Briefly the test comprises administering the test compounds subcutaneously 15 minutes prior to an intraperitoneal injection of PGE2. Each animal is examined for diarrhea (which results after the administration of PGE2) every 15 minutes for one hour post-drug. Polyphloretin phosphate and 7 oxa-13-prostynoic acid, both well known antagonists of prostaglandin induced diarrhea, were employed as reference compounds. Results of tests conducted for the inhibition of PGE2 diarrhea in mice are disclosed in Table 2.

prostaglandin synthesis = experiment: Inhibition of prostaglandin synthesis (arachidonic acid-dependent formation of adrenochrome from L-epinephrine); assay type: biochemical; details: for IC50: read-out: ID50, inhibition of prostaglandin synthesis; for Inhibition of prostaglandin synthesis: 1000 μM
Source text: The prostaglandin synthesis inhibition method as employed is reported by Takeguchi and Sih, Prastaglandins, 2, 169, 1972. The principle entails the arachidonic acid-dependent formation of adrenochrome from L-epinephrine during prostaglandin biosynthesis. Indomethacin, phenylbutazone and aspirin were used as reference compounds.

Molecule	Percent Change, Diarrhea Incidence ([1]; 5 mg/kg S.C.)	Percent Change, Diarrhea Incidence ([1]; 10 mg/kg S.C.)	Percent Change, Diarrhea Incidence ([1]; 20 mg/kg S.C.)	Percent Change, Diarrhea Incidence ([1]; 40 mg/kg S.C.)	IC50 (prostaglandin synthesis)	further results
polyphloretin phosphate [PPP, reference compound]	-4%	-26%	-36%	-65%	–	Percent Change, Diarrhea Incidence ([1]; 80 mg/kg S.C.): -68%
COc1ccc2c(c1)c(CC(=O)O)c(C)n2C(=O)c1ccc(Cl)cc1 [Indomethacin, reference compound]	–	–	–	–	2 µM	–
CCCCCCCC[C@@H]1OCO[C@H]1CCCCCCCC(=O)O (relative stereo) [Compound F, (8.xi.-trans)-9,11-dioxa-1a-homoprostan-1-oic acid]	0%	-36%	0%	-14%	–	Inhibition of prostaglandin synthesis (prostaglandin synthesis): 30%
CCCCCCCC[C@@H]1OS(=O)O[C@@H]1CCCCCCCC(=O)OC (relative stereo) [Compound G, (8.xi.-cis)-10-oxo-9,11-dioxa-10-thia-1a-homoprostan-1-oic acid, methyl ester]	-14%	-29%	-57%	0%	–	–
CCCCCCCC[C@@H]1SC(=S)S[C@H]1CCCCCCCC(=O)O (relative stereo) [Compound E, (8.xi.-trans)-10-thioxo-9,11-dithia-1a-homoprostan-1-oic acid]	–	–	–	–	390 µM	–
CC(=O)Oc1ccccc1C(=O)O [Aspirin, reference compound]	–	–	–	–	3700 µM	–
CCCCCCCC[C@@H]1OS(=O)O[C@H]1CCCCCCCC(=O)OC (relative stereo) [Compound C]	+15%	-31%	-54%	-8%	–	Inhibition of prostaglandin synthesis (prostaglandin synthesis): 20%
CCCCCCC#C[C@H]1CCC[C@@H]1OCCCCCC(=O)O [7-oxa-13-prostynoic acid, reference compound]	-100%	–	–	–	–	Percent Change, Diarrhea Incidence ([1]; 0.2 mg/kg S.C.): -15%; Percent Change, Diarrhea Incidence ([1]; 1 mg/kg S.C.): -100%
CCCCC1C(=O)N(c2ccccc2)N(c2ccccc2)C1=O [Phenylbutazone, reference compound]	–	–	–	–	875 µM	–
